Results: ChEMBL document CHEMBL2331470 (J Med Chem, 2013)
The source made the active and inactive calls. The calls are words filed in the database; no cut-off is given here.

What was measured:
Histone deacetylase 8 = molecular target: T1, Histone deacetylase 8 (Homo sapiens, UniProt Q9BY41); test: Inhibition of HDAC8 (unknown origin) assessed as fluorescence intensity measured after 60 mins incubation at room temperature by trypsin-free microfluidic lab-on-a-chip assay
T1 sequence (Q9BY41 whole entry): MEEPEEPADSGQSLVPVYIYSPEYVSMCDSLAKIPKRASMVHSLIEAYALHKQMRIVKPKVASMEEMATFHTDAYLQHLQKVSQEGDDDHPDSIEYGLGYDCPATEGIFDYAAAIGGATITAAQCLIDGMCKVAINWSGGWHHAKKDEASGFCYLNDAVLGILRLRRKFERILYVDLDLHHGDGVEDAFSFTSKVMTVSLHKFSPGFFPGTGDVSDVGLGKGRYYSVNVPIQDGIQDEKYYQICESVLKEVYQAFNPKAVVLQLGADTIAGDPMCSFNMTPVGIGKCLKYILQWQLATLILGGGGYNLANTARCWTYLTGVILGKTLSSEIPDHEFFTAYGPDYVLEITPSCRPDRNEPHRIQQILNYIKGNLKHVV

Histone deacetylase 4 = Histone deacetylase 4 (Homo sapiens, UniProt P56524); test: Inhibition of HDAC4 (unknown origin) assessed as fluorescence intensity measured after 60 mins incubation at room temperature by trypsin-free microfluidic lab-on-a-chip assay
Sequence of Histone deacetylase 4 (P56524 whole entry): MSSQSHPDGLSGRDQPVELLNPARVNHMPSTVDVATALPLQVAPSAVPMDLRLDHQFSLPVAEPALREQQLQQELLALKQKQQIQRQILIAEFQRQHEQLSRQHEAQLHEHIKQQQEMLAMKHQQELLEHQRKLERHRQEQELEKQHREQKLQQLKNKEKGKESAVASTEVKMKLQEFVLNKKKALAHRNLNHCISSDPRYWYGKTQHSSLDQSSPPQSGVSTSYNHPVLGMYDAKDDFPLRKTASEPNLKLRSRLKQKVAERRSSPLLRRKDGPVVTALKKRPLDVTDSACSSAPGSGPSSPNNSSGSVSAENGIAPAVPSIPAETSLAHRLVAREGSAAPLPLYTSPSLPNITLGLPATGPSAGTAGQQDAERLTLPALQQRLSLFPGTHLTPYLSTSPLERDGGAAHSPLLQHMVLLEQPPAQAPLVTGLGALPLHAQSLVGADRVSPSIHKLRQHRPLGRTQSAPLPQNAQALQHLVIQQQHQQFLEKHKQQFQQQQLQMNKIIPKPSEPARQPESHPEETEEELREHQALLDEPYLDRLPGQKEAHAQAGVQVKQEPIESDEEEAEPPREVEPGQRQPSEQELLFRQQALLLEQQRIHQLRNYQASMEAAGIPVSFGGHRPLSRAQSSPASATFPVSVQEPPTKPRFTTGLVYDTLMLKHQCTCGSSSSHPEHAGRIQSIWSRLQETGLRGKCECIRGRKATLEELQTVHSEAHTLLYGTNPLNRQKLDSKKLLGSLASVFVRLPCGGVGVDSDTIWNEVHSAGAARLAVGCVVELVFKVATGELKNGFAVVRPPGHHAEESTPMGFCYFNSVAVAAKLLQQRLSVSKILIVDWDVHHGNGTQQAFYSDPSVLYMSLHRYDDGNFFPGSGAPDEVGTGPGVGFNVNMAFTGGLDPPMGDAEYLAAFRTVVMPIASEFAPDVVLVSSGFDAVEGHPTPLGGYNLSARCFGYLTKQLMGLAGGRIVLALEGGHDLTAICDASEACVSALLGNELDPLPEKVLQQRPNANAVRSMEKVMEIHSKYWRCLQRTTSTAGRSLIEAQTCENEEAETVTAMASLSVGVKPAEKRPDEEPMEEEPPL

Histone deacetylase 2 = Histone deacetylase 2 (Homo sapiens, UniProt Q92769); test: Inhibition of HDAC2 (unknown origin) assessed as fluorescence intensity measured after 60 mins incubation at room temperature by trypsin-free microfluidic lab-on-a-chip assay
Sequence of Histone deacetylase 2 (Q92769 whole entry): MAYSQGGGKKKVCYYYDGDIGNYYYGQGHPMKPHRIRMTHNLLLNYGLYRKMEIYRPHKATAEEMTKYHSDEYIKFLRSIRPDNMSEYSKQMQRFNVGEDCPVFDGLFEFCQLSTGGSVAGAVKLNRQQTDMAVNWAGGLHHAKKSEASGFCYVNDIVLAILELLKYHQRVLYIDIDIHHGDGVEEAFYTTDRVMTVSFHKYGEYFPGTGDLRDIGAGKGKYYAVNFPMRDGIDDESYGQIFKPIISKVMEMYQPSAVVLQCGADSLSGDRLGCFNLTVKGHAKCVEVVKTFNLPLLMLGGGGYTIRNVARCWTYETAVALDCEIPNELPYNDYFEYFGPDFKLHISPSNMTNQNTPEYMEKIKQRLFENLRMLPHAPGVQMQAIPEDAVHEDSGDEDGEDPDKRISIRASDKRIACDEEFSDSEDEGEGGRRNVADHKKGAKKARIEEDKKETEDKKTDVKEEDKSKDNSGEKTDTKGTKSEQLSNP

[1] = molecular target: T2, Protein deacetylase HDAC6 (Homo sapiens, UniProt Q9UBN7); test: Inhibition of HDAC6 (unknown origin) assessed as fluorescence intensity measured after 60 mins incubation at room temperature by trypsin-free microfluidic lab-on-a-chip assay
T2 sequence (Q9UBN7 whole entry): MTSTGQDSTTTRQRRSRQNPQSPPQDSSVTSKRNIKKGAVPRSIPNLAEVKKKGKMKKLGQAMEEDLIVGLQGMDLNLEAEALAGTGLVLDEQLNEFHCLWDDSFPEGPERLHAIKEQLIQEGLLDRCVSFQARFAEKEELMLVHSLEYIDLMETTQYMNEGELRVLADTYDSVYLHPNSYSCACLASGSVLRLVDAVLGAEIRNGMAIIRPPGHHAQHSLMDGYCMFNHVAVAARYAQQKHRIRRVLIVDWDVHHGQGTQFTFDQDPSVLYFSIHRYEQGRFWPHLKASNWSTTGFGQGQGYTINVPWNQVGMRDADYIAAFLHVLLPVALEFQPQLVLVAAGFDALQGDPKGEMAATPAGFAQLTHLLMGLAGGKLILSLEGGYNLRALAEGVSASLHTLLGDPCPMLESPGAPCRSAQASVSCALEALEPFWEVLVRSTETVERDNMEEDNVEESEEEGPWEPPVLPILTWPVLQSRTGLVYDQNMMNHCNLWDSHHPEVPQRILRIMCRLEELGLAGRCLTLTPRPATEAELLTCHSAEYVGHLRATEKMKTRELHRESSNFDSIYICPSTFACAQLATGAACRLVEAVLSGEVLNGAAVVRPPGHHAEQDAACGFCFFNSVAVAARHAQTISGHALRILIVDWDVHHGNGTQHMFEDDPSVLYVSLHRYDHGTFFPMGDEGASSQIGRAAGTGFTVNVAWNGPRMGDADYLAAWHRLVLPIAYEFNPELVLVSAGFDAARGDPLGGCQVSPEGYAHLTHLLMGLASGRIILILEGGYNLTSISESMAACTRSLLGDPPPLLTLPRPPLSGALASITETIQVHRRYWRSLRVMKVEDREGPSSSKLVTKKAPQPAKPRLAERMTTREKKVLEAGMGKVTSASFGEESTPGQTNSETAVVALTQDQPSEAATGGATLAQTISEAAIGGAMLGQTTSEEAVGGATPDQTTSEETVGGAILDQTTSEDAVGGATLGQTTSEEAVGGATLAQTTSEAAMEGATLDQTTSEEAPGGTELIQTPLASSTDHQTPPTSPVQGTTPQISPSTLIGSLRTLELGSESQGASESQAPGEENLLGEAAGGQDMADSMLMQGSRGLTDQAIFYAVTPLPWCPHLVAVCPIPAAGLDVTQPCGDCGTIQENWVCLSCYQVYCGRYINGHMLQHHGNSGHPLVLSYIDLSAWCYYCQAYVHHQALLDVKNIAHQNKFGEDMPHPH

Histone deacetylase 3 [2] = molecular target: T3, Histone deacetylase 3 (Homo sapiens, UniProt O15379); test: Inhibition of HDAC3 (unknown origin) assessed as fluorescence intensity measured after 60 mins incubation at room temperature by trypsin-free microfluidic lab-on-a-chip assay
T3 sequence (O15379 whole entry): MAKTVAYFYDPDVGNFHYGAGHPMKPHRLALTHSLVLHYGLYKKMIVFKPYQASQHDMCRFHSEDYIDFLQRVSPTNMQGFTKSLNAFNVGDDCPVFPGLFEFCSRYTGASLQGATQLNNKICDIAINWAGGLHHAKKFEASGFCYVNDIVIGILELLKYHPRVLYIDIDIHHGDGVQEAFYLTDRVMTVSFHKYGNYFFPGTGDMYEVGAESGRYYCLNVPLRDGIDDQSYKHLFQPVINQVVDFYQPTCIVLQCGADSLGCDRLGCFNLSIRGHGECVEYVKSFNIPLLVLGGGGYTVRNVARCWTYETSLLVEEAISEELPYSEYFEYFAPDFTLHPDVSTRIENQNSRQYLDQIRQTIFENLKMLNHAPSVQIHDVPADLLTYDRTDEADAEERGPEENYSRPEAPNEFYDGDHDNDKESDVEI

[3] = molecular target: T4, Protein deacetylase HDAC6 (Homo sapiens) (UniProt Q9UBN7); test: Inhibition of HDAC6 in human HeLa cells assessed as increase in acetylated alpha-tubulin measured after 24 hrs by Western blotting analysis; type: cell-based
T4 sequence (whole entry): T2 sequence (Q9UBN7 whole entry)

Histone deacetylase 1 = Histone deacetylase 1 (Homo sapiens, UniProt Q13547); test: Inhibition of HDAC1 (unknown origin) assessed as fluorescence intensity measured after 60 mins incubation at room temperature by trypsin-free microfluidic lab-on-a-chip assay
Sequence of Histone deacetylase 1 (Q13547 whole entry): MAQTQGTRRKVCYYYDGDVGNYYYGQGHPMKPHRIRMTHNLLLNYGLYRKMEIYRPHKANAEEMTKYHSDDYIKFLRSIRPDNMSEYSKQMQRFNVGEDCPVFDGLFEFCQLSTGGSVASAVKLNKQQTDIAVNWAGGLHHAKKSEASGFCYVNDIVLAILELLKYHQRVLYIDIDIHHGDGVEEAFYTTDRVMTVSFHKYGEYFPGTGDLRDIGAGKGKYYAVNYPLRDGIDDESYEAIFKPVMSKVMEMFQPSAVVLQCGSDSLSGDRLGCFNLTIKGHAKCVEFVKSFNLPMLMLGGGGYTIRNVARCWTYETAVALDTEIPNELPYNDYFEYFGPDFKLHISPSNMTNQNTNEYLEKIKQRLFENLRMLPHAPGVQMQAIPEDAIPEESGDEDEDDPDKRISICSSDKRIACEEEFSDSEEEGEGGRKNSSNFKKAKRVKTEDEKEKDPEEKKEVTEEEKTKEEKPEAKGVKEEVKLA

Histone deacetylase 5 = Histone deacetylase 5 (Homo sapiens, UniProt Q9UQL6); test: Inhibition of HDAC5 (unknown origin) assessed as fluorescence intensity measured after 60 mins incubation at room temperature by trypsin-free microfluidic lab-on-a-chip assay
Sequence of Histone deacetylase 5 (Q9UQL6 whole entry): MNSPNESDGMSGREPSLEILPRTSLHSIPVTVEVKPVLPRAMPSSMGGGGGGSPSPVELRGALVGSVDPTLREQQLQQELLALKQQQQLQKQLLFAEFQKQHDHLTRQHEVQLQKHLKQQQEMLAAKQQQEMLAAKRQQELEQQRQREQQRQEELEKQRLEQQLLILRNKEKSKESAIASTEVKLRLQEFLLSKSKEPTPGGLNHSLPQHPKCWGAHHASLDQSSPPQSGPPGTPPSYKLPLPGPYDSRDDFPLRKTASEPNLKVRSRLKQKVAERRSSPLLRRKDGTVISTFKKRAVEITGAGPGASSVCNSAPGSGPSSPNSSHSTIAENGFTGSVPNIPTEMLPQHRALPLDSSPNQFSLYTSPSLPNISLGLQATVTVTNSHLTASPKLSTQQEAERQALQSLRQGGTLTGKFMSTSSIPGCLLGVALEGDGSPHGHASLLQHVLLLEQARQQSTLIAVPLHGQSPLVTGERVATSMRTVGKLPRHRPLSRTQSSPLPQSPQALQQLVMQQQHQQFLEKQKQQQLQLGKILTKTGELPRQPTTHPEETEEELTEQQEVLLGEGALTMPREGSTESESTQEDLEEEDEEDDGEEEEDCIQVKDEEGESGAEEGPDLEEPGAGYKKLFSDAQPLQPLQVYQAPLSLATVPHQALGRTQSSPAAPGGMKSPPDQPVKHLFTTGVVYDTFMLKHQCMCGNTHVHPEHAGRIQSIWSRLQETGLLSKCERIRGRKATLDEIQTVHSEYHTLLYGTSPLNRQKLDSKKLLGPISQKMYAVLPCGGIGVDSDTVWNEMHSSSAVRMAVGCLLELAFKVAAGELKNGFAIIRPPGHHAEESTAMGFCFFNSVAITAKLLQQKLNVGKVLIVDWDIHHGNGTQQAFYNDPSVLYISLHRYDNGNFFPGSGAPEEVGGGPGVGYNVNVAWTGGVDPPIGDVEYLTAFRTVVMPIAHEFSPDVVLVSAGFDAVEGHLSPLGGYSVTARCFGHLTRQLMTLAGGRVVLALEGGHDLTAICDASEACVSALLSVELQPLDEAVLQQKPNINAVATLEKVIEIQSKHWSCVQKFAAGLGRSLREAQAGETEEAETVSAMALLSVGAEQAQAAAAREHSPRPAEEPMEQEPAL

Histone deacetylase 3 [4] = molecular target: T3, Histone deacetylase 3; test: Inhibition of HDAC3 in human HeLa cells assessed as increase in acetylated H3 at 30 uM measured after 24 hrs by Western blotting analysis; type: cell-based
Histone deacetylase 9 = Histone deacetylase 9 (Homo sapiens, UniProt Q9UKV0); test: Inhibition of HDAC9 (unknown origin) assessed as fluorescence intensity measured after 60 mins incubation at room temperature by trypsin-free microfluidic lab-on-a-chip assay
Sequence of Histone deacetylase 9 (Q9UKV0 whole entry): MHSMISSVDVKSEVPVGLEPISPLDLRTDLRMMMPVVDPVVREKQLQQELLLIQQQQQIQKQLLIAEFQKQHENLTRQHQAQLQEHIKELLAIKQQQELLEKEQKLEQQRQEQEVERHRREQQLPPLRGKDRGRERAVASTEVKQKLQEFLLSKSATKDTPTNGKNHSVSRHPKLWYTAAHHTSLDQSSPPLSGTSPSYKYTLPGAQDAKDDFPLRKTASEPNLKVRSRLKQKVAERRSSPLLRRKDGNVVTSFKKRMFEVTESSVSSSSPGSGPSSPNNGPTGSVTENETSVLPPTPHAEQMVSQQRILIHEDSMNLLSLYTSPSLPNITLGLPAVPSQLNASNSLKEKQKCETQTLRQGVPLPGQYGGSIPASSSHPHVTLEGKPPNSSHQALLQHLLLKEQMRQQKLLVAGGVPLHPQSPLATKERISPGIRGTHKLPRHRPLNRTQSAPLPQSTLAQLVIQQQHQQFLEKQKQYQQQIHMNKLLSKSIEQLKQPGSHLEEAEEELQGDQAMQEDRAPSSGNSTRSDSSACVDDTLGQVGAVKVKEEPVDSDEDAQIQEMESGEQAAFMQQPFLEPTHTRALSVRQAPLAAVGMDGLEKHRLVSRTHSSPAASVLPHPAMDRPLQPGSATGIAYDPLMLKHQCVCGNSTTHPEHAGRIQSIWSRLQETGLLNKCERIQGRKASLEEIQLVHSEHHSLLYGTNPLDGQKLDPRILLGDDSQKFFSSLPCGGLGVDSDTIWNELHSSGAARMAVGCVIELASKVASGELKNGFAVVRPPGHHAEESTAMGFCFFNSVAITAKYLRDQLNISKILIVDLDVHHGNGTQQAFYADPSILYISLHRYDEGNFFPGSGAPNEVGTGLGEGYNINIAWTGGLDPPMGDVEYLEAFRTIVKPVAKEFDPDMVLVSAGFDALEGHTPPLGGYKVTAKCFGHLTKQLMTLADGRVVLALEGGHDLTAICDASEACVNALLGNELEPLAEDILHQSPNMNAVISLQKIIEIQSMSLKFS

| Structure (SMILES) | IC50 (Histone deacetylase 8) [nM] | IC50 (Histone deacetylase 4) [nM] | IC50 (Histone deacetylase 2) [nM] | IC50 [1] [nM] | IC50 (Histone deacetylase 3 [2]) [nM] | inhibition [3] | IC50 (Histone deacetylase 1) [nM] | IC50 (Histone deacetylase 5) [nM] | inhibition (Histone deacetylase 3 [4]) | IC50 (Histone deacetylase 9) [nM] |
| --- | --- | --- | --- | --- | --- | --- | --- | --- | --- | --- |
| O=C(NO)c1ccc(C(=O)NCCc2ccccc2)cc1 | 1150 | > 33300 |  |  |  |  |  |  |  |  |
| O=C(NO)C1CCCCC1 | 3720 | > 33300 | > 33300 | 376 |  |  |  |  |  |  |
| O=C(NO)c1ccccc1 [BENZOHYDROXAMATE] | 1920 | > 33300 | 7910 | 115 | 7830 | Active | 4730 | > 33300 | inactive | > 33300 |
| O=C(NO)C1=CCCC1 | 1090 | 21800 | 1790 | 30 | 694 | Dose-dependent effect | 638 | 18300 | inactive | > 33300 |
| O=C(NO)c1ccc(C(=O)Nc2ccccc2)cc1 | 689 | > 33300 |  | 37 |  |  |  |  |  |  |
| CN1CCN(CCNC(=O)c2ccc(C(=O)NO)cc2)CC1 | 20900 | > 33300 |  | 1360 |  |  |  |  |  |  |
| O=C(CCc1ccccc1)NO | 2350 | > 33300 | 2720 | 448 |  |  |  |  |  |  |
| O=C(NO)C1=CCCCC1 | 431 | 9130 | 1050 | 12 |  | Active |  |  | inactive |  |
| O=C(NO)c1ccc(C(=O)NCc2ccccc2)cc1 | 1030 | > 33300 | 381 | 7 |  |  |  |  |  |  |
| O=C(NO)c1ccc(C(=O)NCCc2ccncc2)cc1 | 1330 | > 33300 |  | 8 |  |  |  |  |  |  |
| O=C(Cc1ccccc1)NO [PHENYLACETOHYDROXAMIC ACID] | 11600 | > 33300 | > 33300 |  |  |  |  |  |  |  |
| O=C(/C=C/c1ccccc1)NO | 759 | 19500 | 457 | 22 |  |  |  |  |  |  |
| CNC(=O)c1ccc(C(=O)NO)cc1 | 1950 | > 33300 |  | 28 |  | Active |  |  | inactive |  |
